Columns and labels:
ischemic hearts = assay: echocardiography assessment of heart function in cCHD rats; type: in vivo, SD rats; settings: 5 mg/kg, echocardiography day 2, 7 and 14, progressively lowered in vehicle treated rats
Procedure: (§1) The subclinical cCHD rat model was produced as described. Briefly, male Sprague-Dawley (SD) rats, weighing 150-200 g, were used. Following proper anesthesia, left thoracotomy was performed on the animals. The pericardium was opened and a probe or surgical suture thread (11-0) was placed onto the epicardium along the LAD. […] The experimental rats with ST segment constantly depressed above 0.1 mV were selected and randomly divided into two groups. […] The rats in vehicle-treated group (n=6) were treated with equivalent period and amount of H2O. For the sham operation group (n=6), left thoracotomy was performed and the pericardium was opened but with no LAD ligation.
Echocardiography Assessment of Heart Function. In all, 12 SD rats received baseline echocardiography before any experimental procedures. Echocardiography was recorded under controlled anesthesia using a Toshiba Aplio XG Echocardiography with PLT-1202S linear array transducer S10-MHz phased-array transducer. M-mode tracing and 2-dimensional (2D) echocardiography images were recorded from the parasternal long- and short-axis views. Short axis view was at the papillary muscles level. Left ventricular end-systolic and end-diastolic dimensions, as well as systolic and diastolic wall thickness, were measured from the M-mode tracings by using the leading-edge convention of the American Society of Echocardiography. For each M-mode measurement, at least three consecutive cardiac cycles were sampled. All rats in both groups received echocardiography measurements on day 2, 7 and 14 post ligation.

[1] = test system: human umbilical vein endothelial cells (HUVEC); assay: differentiation of human umbilical vein endothelial cells (HUVEC); type: cell-based; settings: for differentiation of HUVEC, dose dependence: versus vehicle treated cells (proliferation, no differentiation)
Description: FIG. 2. illustrates a series of micrographs showing differentiation of vessel endothelial cells (HUVEC) induced by angioenhancin compounds of formula I and II. Panels a & b represent the vehicle treated cells showing proliferation but no sign of differentiation.

infarcted hearts = assay: myocardial infarction rat model (permanent LAD ligation), neovascularization in infarct zone; type: in vivo, Sprague-Dawley rats; settings: vehicle-treated: mainly fibrosis
Procedure: Myocardial infarction (MI) animal model was induced in male Sprague-Dawley rats (300-350 g) by permanent ligation of the left anterior descending (LAD) coronary artery. The experimental rats were anesthetized with intraperitoneal pentobarbital (50 mg/kg), intubated, and mechanically ventilated with room air. The angioenhancin compound of formula I or formula II (2 mg/kg), dissolved in water (0.5 ml), was orally administrated to MI rats (n=6) for one day post ligation, daily for two weeks with equivalent amount of water to the vehicle-treated rats (n=6). For sham-operated rats (n=5), thoracotomy was performed without ligation. Animals were sacrificed after final echocardiography measurements.
Evaluation of neovascularization in infarcted hearts. Echocardiography was recorded on day 7 and 14 post operations. The hearts of the sacrificed rats were removed and washed with PBS. For histological studies, the left ventricles of the experimental rats were removed and cut from apex-to-base in 3 transverse slices and embedded in paraffin. To quantify the density of capillaries in infarct zones, the vessels were counted and averaged in 6 randomly selected high power view fields (HPF, 40×) on each section. Blinded capillary counts were performed on 6 hearts per group by two investigators. The results were expressed as mean±SD capillaries per HPF.

[2] = test system: human aorta endothelial cells (HAEC); assay: capillary-like tube formation of human aorta endothelial cells on fibrin matrix; settings: for Approx. No. of Tubes: HAEC on fibrin matrix, Ctrl 9; for Approx. No. of Tubes / capillary-like networks compared to vehicle-treated cells: 22 hours; for capillary-like networks compared to vehicle-treated cells: HAEC
Procedure: Cells were incubated at 37° C. and equilibrated in 95% air-5% CO2. Fibrin matrices were prepared by polymerization of fibrinogen solution (5 mg fibrinogen/ml serum-free medium) using low concentrations of α-thrombin (2.5 U/ml). After polymerization, gels were soaked in culture medium containing 10% FBS for 2 h at 37° C. to inactivate the thrombin. HAEC were seeded on the surface of the three-dimensional matrix in 96-well plates in Ham's F-12 medium and cultured for 22 hours with different concentrations of angioenhancin compounds of formula I and formula II in a growth medium. Non-treated control was added with equivalent amount of growth medium. Images were captured and the angiogenic properties were determined by calculating the total number of tubes formed.

VEGF, VEGFR, EGF and FGF = assay: RT-PCR of angiogenesis-associated genes in treated heart tissues and endothelial cells; type: in vivo
[3] = test system: ischemic zone of myocardium; assay: subclinical chronic coronary heart disease (cCHD) rat model (partial LAD ligation), neovascularization in ischemic zone; type: in vivo, Sprague-Dawley (SD) rats; settings: for vascular density in treated ischemic hearts versus vehicle-treated hearts (FIG. 4): 2 weeks post ligation; for chronic ischemic heart histology, 2 weeks post LAD partial ligation (FIG. 4): compared with vehicle-treated hearts (C1)
Procedure: as §1
Measurement of neovascularization in the ischemic zone. Left ventricles from the rats sacrificed on day 14 post-ligation were removed and sliced from apex to base in 3 transverse slices. The slices were fixed in formalin and embedded in paraffin. Vascular density was determined on the histology section samples by counting the number of vessels within the ischemic zone using a light microscope under a high power field (HPF) (40×). Eight random and non-overlapping HPFs within the ischemic field were used for counting all the vessels in each section. The number of vessels in each HPF was averaged and expressed as the number of vessels per HPF. Vascular counts were performed by two investigators in a blind fashion.
The capillary density in the ischemic zone of the angioenhancin treated myocardium was on average 12 capillaries (12±3.8) filled with blood cells per HPF, calculated from 8 randomly selected view fields on each of the 3 slides from 6 angioenhancin treated hearts on day 14.

Row | Molecule | left ventricle ejection fraction (LVEF) (ischemic hearts) | left ventricle fraction shortening (LVFS) (ischemic hearts) | differentiation of HUVEC (cell phenotype, FIG. 2) ([1]; 10 μg/ml) | differentiation of HUVEC (cell phenotype, FIG. 2) ([1]; 20 μg/ml) | differentiation of HUVEC (cell phenotype, FIG. 2) ([1]; 40 μg/ml) | differentiation of HUVEC, dose dependence [1] | infarcted region histology, 2 weeks post LAD ligation (FIG. 4) (infarcted hearts) | Approx. No. of Tubes ([2]; 5 μg/ml) | Approx. No. of Tubes ([2]; 10 μg/ml) | Approx. No. of Tubes ([2]; 20 μg/ml) | growth of capillary-like tubes versus non-treated control (FIG. 3) ([2]; HAEC passage 7, 22 hours, concentration not given) | capillary-like networks compared to vehicle-treated cells [2] | expressions of angiogenesis-associated genes (VEGF, VEGFR, EGF and FGF), RT-PCR (VEGF, VEGFR, EGF and FGF) | vascular density in treated ischemic hearts versus vehicle-treated hearts (FIG. 4) [3] | chronic ischemic heart histology, 2 weeks post LAD partial ligation (FIG. 4) [3] | growth of capillary-like tube structures versus non-treated control (FIG. 3) ([2]; 5 μg/ml, HAEC passage 7, 22 hours)
1 | O=C(OC1OC2COC(=O)c3cc(O)c(O)c(O)c3-c3c(cc(O)c(O)c3O)C(=O)OC2C2OC(=O)c3cc(O)c(O)c(O)c3-c3c(cc(O)c(O)c3O)C(=O)OC12)c1cc(O)c(O)c(O)c1 (centres unmarked) [Formula II, Potentillin] | progressively restored | progressively restored | refractive and elongated cells | thin and elongated phenotype with the typical characteristic of differentiation of vessel endothelial cells | thin, elongated and circled phenotype forming tube-like structures | enhanced differentiation of HUVEC in a dose dependent manner | many newly formed vessels filled with red blood cells observed | ~67 | ~46 | ~45 | enhanced growth of capillary-like tubes more than that in non-treated control, but less than that in angioenhancin-I treated | formed more capillary-like networks | up-regulated | higher | more blood vessels | –
2 | pedunculagin [Formula I] | progressively restored | progressively restored | – | enhanced differentiation showing thin and elongated cells | thin and elongated phenotype forming tube-like structures | enhanced differentiation of HUVEC in a dose dependent manner | Many newly formed collateral vessels filled with red blood cells were found | ~45 | ~57 | ~68 | – | formed more capillary-like networks | up-regulated | higher | more blood vessels | enhanced growth of capillary-like tube structures much more than that in non-treated control
